Reference: patent publication US20240424083A1 (priority 2023, published 2024)
Peptide text beside a SMILES is read from it. * marks the point of attachment. Cbz = O=C(OCc1ccccc1)*; CH2F = FC*

What was measured:
Type in all cases: cell-based, mouse
[1] = system: 2′5′-OAS/RNaseL system; conditions: N15m1-infected BMDMs, 18 hpi; zVAD 20 μM, C16 1 μM
Description: Bioanalyzer RNA analysis. Equal amounts of total RNA purified from BMDMs were analyzed on an Agilent 2100 Bioanalyzer using RNA Nano LabChips.

[2] = system: BMDMs; conditions: N15m1-infected BMDMs, 24 hpi; zVAD 20 μM, Nec-1 25 μM, VX-765 20 μM
Description: Cell death assays. Cell viability and Caspase 3/7 activity were measured using CellTiter Glo (G7571, Promega) or CaspaseGlo 3/7 (G8091, Promega) respectively, according to the manufacturer's protocol, with modification.
Cell death assays. Cell viability and Caspase 3/7 activity were measured using CellTiter Glo (G7571, Promega) or CaspaseGlo 3/7 (G8091, Promega) respectively, according to the manufacturer's protocol, with modification. Briefly, 3.0×10^5 BMDMs/well wereplated in 24-well plates and infected at an MOI of 0.1 for 1 h in serum-free media. Media was replaced with complete media, or for addition of chemical inhibitors, viral inoculum was replaced with completed BMM media containing indicated concentration of inhibitors. Infected BMDMs were incubated for 24 h at 37° C./5% CO2. BMDMs were washed twice with 1×PBS and lysed with 100 μL Glo reagent/medium mixture (1:1). 50 μL of cell lysate was used for measuring the luminescence signal. Standard deviation and unpaired t test were performed on technical triplicates and data are representative of three independent experiments.

[3] = system: BMDMs

For COC(=O)C[C@H](NC(=O)[C@H](C)NC(=O)[C@@H](NC(=O)OCc1ccccc1)C(C)C)C(=O)CF [zVAD] (Cbz-Val-Ala-Asp(OMe)-CH2F), the “effect of inhibitor on degradation of host rRNA” value [1] was “not inhibited”, the “effect of inhibitor on virus-induced cell death” value [2] was “prevented virus-induced cell death” and the “effect of inhibitor on caspase 3/7 activity in N15m1-infected BMDMs” value [3] was “inhibited”.
